Data reported in PMC8230474, “Synthesis of Novel Acyl Derivatives of 3-(4,5,6,7-Tetrabromo-1H-benzimidazol-1-yl)propan-1-ols—Intracellular TBBi-Based CK2 Inhibitors with Proapoptotic Properties” (International Journal of Molecular Sciences, 2021).
Read-outs that look alike come from different tables or passages of the source.

Experiments:
[1] = target: CK2 holoenzyme (CK2 α2β2) (Homo sapiens, UniProt P68400); assay: Radiometric (P81 filter isotopic) kinase assay, CK2 holoenzyme; type: biochemical; settings: for remaining activity at 5 µM: 5 µM compound; for remaining activity at 5 µM / remaining activity at 10 µM: read-out: Residual Activity of the Enzyme CK2 α2β2; for remaining activity at 10 µM: 10 µM compound; for Ki: calculated from IC50 by Cheng and Prusoff equation
[2] = target: human CK2 catalytic subunit (CK2α) (Homo sapiens, UniProt P68400); assay: Radiometric (P81 filter isotopic) kinase assay, CK2 catalytic subunit; type: biochemical; settings: for remaining activity at 5 µM: 5 µM compound; for remaining activity at 5 µM / remaining activity at 10 µM: read-out: Residual Activity of the Enzyme CK2α; for remaining activity at 10 µM: 10 µM compound
PIM1 = PIM1 (Homo sapiens, UniProt P11309); assay: Radiometric (P81 filter isotopic) kinase assay, PIM1; type: biochemical; settings: for remaining activity at 5 µM: 5 µM compound; for remaining activity at 5 µM / remaining activity at 10 µM: read-out: Residual Activity of the Enzyme PIM1; for remaining activity at 10 µM: 10 µM compound; for Ki: calculated from IC50 by Cheng and Prusoff equation
MCF-7 cells [3] = assay: Cell cycle progression by flow cytometry, MCF-7; type: cell-based, human; settings: MCF-7, 72 h, compound at its EC50
MDA-MB-231 cells = assay: MTT viability assay, MDA-MB-231; type: cell-based; settings: Homo sapiens
Experimental: (§1) To test the anti-cancer effect of the TBBi derivatives, we treated the MCF-7 and MDA-MB-231 cells with the newly synthesized esters and previously reported compounds [34, 57] at the concentration range of 3.125 to 200 µM for 24 h, 48 h and 72 h. Additionally, the range of concentrations was extended by additional lower concentrations in MCF-7 for compound 4 with the minimum concentration of 0.195 µM. […] The EC50 values, describing the half maximal effective concentration of each tested compound, were calculated and are summarized in Table 2. […] We observed that the EC50 values increase in both cell lines with the elongation of fatty acids chain length in the tested compounds, thus strongly correlating with the decrease of their solubility in biological media as characterized by logS parameter (Table 2). The second reason for the decreased biological activity of the longer-chain aliphatic esters might be attributed to their greater resistance toward intracellular hydrolysis, which directly influences the slower release of the active form of the corresponding CK2 inhibitors. […] However, none of the tested compounds, except for compound 5, decreased the viability of both cell lines in a time-dependent manner (Figure 4).
(§2) MCF-7 and MDA-MB-231 were cultured in high-glucose Dulbecco’s modified Eagle medium (DMEM, Lonza, Basel, Switzerland) supplemented with 10% fetal bovine serum (FBS, EuroClone, Siziano, Italy)), 2 mM L-glutamine, and antibiotics (100 U/mL penicillin, 100 µg/mL streptomycin) (Sigma-Aldrich Chemical Company (St. Louis, MO, USA). Cells were grown in 75-cm^2 cell culture flasks (Sarstedt, Nümbrecht, Germany) in a humidified atmosphere of CO2/air (5%/95%) at 37 °C. All the experiments were performed in exponentially growing cultures. Stock solutions of the test compounds were prepared in DMSO and stored in −80 °C for a maximum of one month. For the cytotoxicity studies, stock solutions of the tested compounds were diluted 200-fold with the proper culture medium to obtain the final concentrations.
(§3) After incubation with the tested compounds, an MTT test was performed as described previously. Optical densities were measured at 570 nm using BioTek microplate reader (Winooski, VT, USA). All measurements were carried out in a minimum of three biological replicates.

MCF-7 cells [4] = assay: MTT viability assay, MCF-7; type: cell-based; settings: Homo sapiens
Experimental: as §1, §2, §3

[5] = 24 h, read-out: EC50 ± SD MDA-MB-231
[6] = 48 h, read-out: EC50 ± SD MDA-MB-231
[7] = 72 h, read-out: EC50 ± SD MDA-MB-231
[8] = MCF7, 24 h, read-out: EC50 ± SD MCF-7
[9] = MCF7, 48 h, read-out: EC50 ± SD MCF-7
[10] = MCF7, 72 h, read-out: EC50 ± SD MCF-7
[11] = 24 h, 48 h and 72 h, read-out: EC50 MDA-MB-231
[12] = MCF7, 24 h, 48 h and 72 h, read-out: EC50 MCF-7

Chain of PIM1 (P11309 whole entry, species assumed): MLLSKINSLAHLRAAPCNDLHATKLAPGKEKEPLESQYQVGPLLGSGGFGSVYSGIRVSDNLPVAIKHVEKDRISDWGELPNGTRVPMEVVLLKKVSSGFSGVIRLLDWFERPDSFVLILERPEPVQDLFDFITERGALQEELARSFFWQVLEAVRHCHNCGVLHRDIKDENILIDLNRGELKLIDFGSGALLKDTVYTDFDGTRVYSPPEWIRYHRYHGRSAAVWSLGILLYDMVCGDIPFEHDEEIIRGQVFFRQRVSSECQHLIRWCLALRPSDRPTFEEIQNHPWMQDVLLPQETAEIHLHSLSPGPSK
Chain of CK2 holoenzyme (CK2 α2β2) (P68400 whole entry): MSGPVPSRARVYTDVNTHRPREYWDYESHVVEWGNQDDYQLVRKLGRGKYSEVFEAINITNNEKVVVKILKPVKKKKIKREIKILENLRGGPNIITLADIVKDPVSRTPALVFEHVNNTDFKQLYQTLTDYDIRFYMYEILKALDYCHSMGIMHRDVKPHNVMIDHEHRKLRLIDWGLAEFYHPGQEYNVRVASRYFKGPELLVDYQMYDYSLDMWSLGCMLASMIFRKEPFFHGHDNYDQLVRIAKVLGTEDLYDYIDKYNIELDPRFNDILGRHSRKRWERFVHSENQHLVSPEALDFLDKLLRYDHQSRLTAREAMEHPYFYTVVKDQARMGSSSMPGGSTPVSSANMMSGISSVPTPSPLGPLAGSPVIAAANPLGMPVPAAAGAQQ
Chain of CK2 holoenzyme (CK2 α2β2) (P67870 whole entry partner): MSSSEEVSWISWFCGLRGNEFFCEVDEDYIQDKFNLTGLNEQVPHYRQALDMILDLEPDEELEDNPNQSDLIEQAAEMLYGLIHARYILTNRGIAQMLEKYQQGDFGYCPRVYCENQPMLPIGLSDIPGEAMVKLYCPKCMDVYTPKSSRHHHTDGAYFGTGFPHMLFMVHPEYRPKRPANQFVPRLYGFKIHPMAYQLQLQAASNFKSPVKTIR
Chain of human CK2 catalytic subunit (CK2α) (P68400 whole entry): as the sequence (P68400 whole entry) above

Row | SMILES | remaining activity at 5 µM [1] [%] | remaining activity at 10 µM [1] [%] | remaining activity at 5 µM [2] [%] | remaining activity at 10 µM [2] [%] | remaining activity at 5 µM (PIM1) [%] | cells in G1 (MCF-7 cells [3]) [%] | cells in G2M (MCF-7 cells [3]) [%] | cells in S (MCF-7 cells [3]) [%] | remaining activity at 10 µM (PIM1) [%] | Ki (PIM1) [µM] | EC50 (MDA-MB-231 cells; [5]) [µM] | EC50 (MDA-MB-231 cells; [6]) [µM] | EC50 (MDA-MB-231 cells; [7]) [µM] | EC50 (MCF-7 cells [4]; [8]) [µM] | EC50 (MCF-7 cells [4]; [9]) [µM] | EC50 (MCF-7 cells [4]; [10]) [µM] | melting point [°C] | other results
1 | O=C(O)c1ccc2c(c1)nc(Nc1cccc(Cl)c1)c1ccncc12 [CX-4945, silmitasertib, reference compound] | 0 | 0 | 0 | 0 | 2.3 ± 0.1 | 33.6 | 22.0 | 44.4 |  |  |  |  |  |  |  |  |  | 
2 | OCCCn1cnc2c(Br)c(Br)c(Br)c(Br)c21 [Compound 2] |  |  |  |  | 17.2 ± 2.3 | 51.0 | 14.4 | 34.6 | 10.1 ± 1 | 0.42 ± 0.02 | 54.6 ± 4.32 | 27.2 ± 0.49 | 20.6 ± 0.86 | 24.1 ± 1.39 | 20.1 ± 1.36 | 19.6 ± 1.68 |  | 
3 | CCCC(=O)OCCCn1cnc2c(Br)c(Br)c(Br)c(Br)c21 [Compound 3a, (4,5,6,7-Tetrabromo-1H-benzimidazol-1-yl)propyl butanoate] | 58 ± 4 | 34.8 ± 3.4 | 71 ± 9.5 | 59.1 ± 3.7 | 65 ± 2.8 | 57.8 | 13.8 | 28.4 | 24.4 ± 0.9 | 2.23 ± 0.07 | 40.8 ± 1.58 | 27.8 ± 1.31 | 24.5 ± 0.48 | 29.3 ± 1.24 | 23.1 ± 0.77 | 21.5 ± 1.86 | 96 to 97 | 
4 | CCCCCC(=O)OCCCn1cnc2c(Br)c(Br)c(Br)c(Br)c21 [Compound 3b, 3-(4,5,6,7-Tetrabromo-1H-benzimidazol-1-yl)propyl hexanoate] | 85.5 ± 8.3 | 83.1 ± 7.5 | 89.3 ± 8 | 83 ± 13 | 85 ± 0.1 | 60.5 | 12.2 | 27.3 | 74.2 ± 11.2 |  | 95.6 ± 20.4 | 32.2 ± 3.26 | 27.3 ± 1.26 | 39.6 ± 1.06 | 28.4 ± 1.71 | 24.8 ± 1.33 | 65 to 67 | 
5 | CCCCCCCCCCCC(=O)OCCCn1cnc2c(Br)c(Br)c(Br)c(Br)c21 [Compound 3d, 3-(4,5,6,7-Tetrabromo-1H-benzimidazol-1-yl)propyl dodecanoate] |  |  |  |  |  |  |  |  |  |  | > 100 | > 100 | > 100 | > 100 | > 100 | > 100 | 59 to 60 | EC50 (MDA-MB-231 cells; [11]): > 100 µM; EC50 (MCF-7 cells [4]; [12]): > 100 µM
6 | Cc1nc2c(Br)c(Br)c(Br)c(Br)c2[nH]1 [Compound 4, 4,5,6,7-tetrabromo-2-methyl-1H-benzimidazole, reference compound] | 6 ± 0.9 | 2.9 ± 0.2 | 18.8 ± 1.1 | 7.7 ± 3.3 | 8 ± 0.9 | 53.6 | 16.7 | 29.7 | 4.5 ± 0.2 | 0.21 ± 0.02 | 12.8 ± 6.6 | 5.35 ± 0.82 | 4.73 ± 0.48 | 4.12 ± 0.03 | 4.2 ± 0.29 | 2.66 ± 0.19 |  | Ki [1]: 0.11 ± 0.04 µM
7 | Cc1nc2c(Br)c(Br)c(Br)c(Br)c2n1CCCO [Compound 5] | 14.2 ± 2 | 9.1 ± 0.6 | 26.1 ± 3.5 | 16.3 ± 1 | 9.3 ± 2.6 | 60.2 | 13.5 | 26.3 | 3.4 ± 0.3 | 0.15 ± 0.08 | 57.8 ± 20.8 | 21 ± 9.85 | 9.99 ± 0.44 | 17.6 ± 6.35 | 16 ± 5.31 | 4.9 ± 2.71 | 227 to 230 | Ki [1]: 0.05 ± 0.01 µM; Ki ([2]; calculated from IC50 by Cheng and Prusoff equation): 0.2 ± 0.08 µM
8 | CCCCCCCCCCCC(=O)OCCCn1c(C)nc2c(Br)c(Br)c(Br)c(Br)c21 [Compound 6d, (4,5,6,7-Tetrabromo-2-methyl-1H-benzimidazol-1-yl)propyl dodecanoate] |  |  |  |  |  |  |  |  |  |  | > 100 | > 100 | > 100 | > 100 | > 100 | > 100 | 69 to 70 | EC50 (MDA-MB-231 cells; [11]): > 100 µM; EC50 (MCF-7 cells [4]; [12]): > 100 µM
